Among the data in US9579385B2, “Ophthalmic compositions comprising polyvinyl caprolactam-polyvinyl acetate-polyethylene glycol graft copolymers” (Allergan, Inc., priority 2011, dated 2017) are solubility values, retold here.

Each structure is given as a SMILES string. Values after ≈ are worked out from the molar mass of the structure shown.

A short description of the data set: Bimatoprost solubility in formulation vehicles with different solubilizers. The note with it: for solubility at 8 weeks: measured at 8 weeks; for solubility at 1 week: formulation vehicle with 1% SOLUPLUS (PCA-PVA-PEG), vehicle with 1% SOLUPLUS (PCA-PVA-PEG), measured at 1 week only. The format is physicochemical. From the text: Table 1 summarizes solubility of bimatoprost in vehicles with 5 different solubilizers over a range of temperatures.

For `CCNC(=O)CCC/C=C\C[C@@H]1[C@@H](/C=C/[C@@H](O)CCc2ccccc2)[C@H](O)C[C@@H]1O` [Bimatoprost], the solubility at 8 weeks worked out at 1270 µg/mL (≈ 3.05 mM) (formulation vehicle with 1% POE 40 Stearate, aqueous with cosolvent or surfactant or cyclodextrin, vehicle with 1% POE 40 Stearate, 5 °C); 1210 µg/mL (≈ 2.92 mM) (formulation vehicle with 1% POE 40 Stearate, aqueous with cosolvent or surfactant or cyclodextrin, vehicle with 1% POE 40 Stearate, 25 °C); 1150 µg/mL (≈ 2.76 mM) (formulation vehicle with 1% POE 40 Stearate, aqueous with cosolvent or surfactant or cyclodextrin, vehicle with 1% POE 40 Stearate, 40 °C); 1240 µg/mL (≈ 2.99 mM) (formulation vehicle with 1% Polysorbate 20, aqueous with cosolvent or surfactant or cyclodextrin, vehicle with 1% Polysorbate 20, 5 °C); 1180 µg/mL (≈ 2.83 mM) (formulation vehicle with 1% Polysorbate 20, aqueous with cosolvent or surfactant or cyclodextrin, vehicle with 1% Polysorbate 20, 25 °C); 1050 µg/mL (≈ 2.53 mM) (formulation vehicle with 1% Polysorbate 20, aqueous with cosolvent or surfactant or cyclodextrin, vehicle with 1% Polysorbate 20, 40 °C). The compound further had a solubility at 8 weeks (formulation vehicle with 1% Polysorbate 80, aqueous with cosolvent or surfactant or cyclodextrin, vehicle with 1% Polysorbate 80, 5 °C) of 1680 µg/mL (≈ 4.04 mM); a solubility at 8 weeks (formulation vehicle with 1% Polysorbate 80, aqueous with cosolvent or surfactant or cyclodextrin, vehicle with 1% Polysorbate 80, 25 °C) of 1520 µg/mL (≈ 3.67 mM); a solubility at 8 weeks (formulation vehicle with 1% Polysorbate 80, aqueous with cosolvent or surfactant or cyclodextrin, vehicle with 1% Polysorbate 80, 40 °C) of 1460 µg/mL (≈ 3.51 mM); a solubility at 8 weeks (formulation vehicle with 1% SOLUTOL HS 15, aqueous with cosolvent or surfactant or cyclodextrin, vehicle with 1% SOLUTOL HS 15, 5 °C) of 1500 µg/mL (≈ 3.61 mM); a solubility at 8 weeks (formulation vehicle with 1% SOLUTOL HS 15, aqueous with cosolvent or surfactant or cyclodextrin, vehicle with 1% SOLUTOL HS 15, 25 °C) of 1320 µg/mL (≈ 3.18 mM); a solubility at 8 weeks (formulation vehicle with 1% SOLUTOL HS 15, aqueous with cosolvent or surfactant or cyclodextrin, vehicle with 1% SOLUTOL HS 15, 40 °C) of 1240 µg/mL (≈ 2.98 mM). Besides, the solubility at 1 week reads like this: (aqueous with cosolvent or surfactant or cyclodextrin, 5 °C) 427 µg/mL (≈ 1.03 mM); (aqueous with cosolvent or surfactant or cyclodextrin, 25 °C) 3510 µg/mL (≈ 8.45 mM); (aqueous with cosolvent or surfactant or cyclodextrin, 40 °C) 4750 µg/mL (≈ 11.4 mM).
